Key:
[1] = biological target: T1, purified human topoisomerase I (Homo sapiens, UniProt P11387); experiment: Topoisomerase I mediated single strand break formation in DNA (in vitro); assay type: biochemical; settings: for EC50: PM2 DNA, 30 minutes at 37° C, median effective concentration for single strand DNA break formation; for Topo-I activity: result in words
T1 construct: purchased Topogen
T1 sequence (P11387 1-765): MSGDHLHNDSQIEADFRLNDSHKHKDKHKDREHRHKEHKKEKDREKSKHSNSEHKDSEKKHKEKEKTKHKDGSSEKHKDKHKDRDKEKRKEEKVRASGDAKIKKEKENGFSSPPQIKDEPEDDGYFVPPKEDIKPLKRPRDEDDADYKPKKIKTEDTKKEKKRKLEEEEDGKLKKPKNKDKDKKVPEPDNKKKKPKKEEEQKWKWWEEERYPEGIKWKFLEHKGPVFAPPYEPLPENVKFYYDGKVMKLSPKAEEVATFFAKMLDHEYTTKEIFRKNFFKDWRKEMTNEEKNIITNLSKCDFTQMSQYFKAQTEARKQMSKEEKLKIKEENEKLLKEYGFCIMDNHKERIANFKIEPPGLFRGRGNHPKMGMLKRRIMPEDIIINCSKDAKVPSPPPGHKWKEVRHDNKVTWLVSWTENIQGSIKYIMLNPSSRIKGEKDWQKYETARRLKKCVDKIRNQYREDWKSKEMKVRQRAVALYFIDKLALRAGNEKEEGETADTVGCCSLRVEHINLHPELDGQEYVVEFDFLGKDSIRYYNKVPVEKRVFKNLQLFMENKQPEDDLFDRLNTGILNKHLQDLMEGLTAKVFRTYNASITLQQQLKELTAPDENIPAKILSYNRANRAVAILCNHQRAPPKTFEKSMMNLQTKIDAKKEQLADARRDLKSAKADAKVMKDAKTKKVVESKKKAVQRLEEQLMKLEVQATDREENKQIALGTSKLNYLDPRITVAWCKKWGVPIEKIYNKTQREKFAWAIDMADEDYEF
Description: Samples dissolved in 100% DMSO as either […] or 10 mg/ml solutions, unless otherwise stated, were diluted in Tris-EDTA buffer. Marine bacteriophage PM2 DNA (Boehringer Mannheim) was also diluted in Tris-EDTA buffer to a concentration of 0.02 µg/µl. Different dilutions of compound being evaluated were mixed with diluted DNA and this mixture was added to 1000 unit (one unit of enzyme activity is defined as the amount capable of relaxing 100 ng of supercoiled DNA in approximately 30 minutes at 37°C) aliquots of purified human topoisomerase I (Topogen) in 2X reaction buffer to start the reaction. The compound - DNA - enzyme mixture was incubated for 30 minutes at 37° C before stopping the reaction with warm stop buffer containing sodium dodecyl sulfate and proteinase K (Sigma). These mixtures were allowed to incubate at 37° C for another 10 minutes, at which time the mixtures were removed from the waterbath and extracted with a 24:1 mixture of chloroform/isoamyl alcohol. Following centrifugation, aliquots of the aqueous phases were placed in wells of a 0.9% agarose (SeaKem) gel in Tris-borate buffer containing 0.5 µg/ml of ethidium bromide and subjected to electrophoresis for 15 hours to separate the different topological isomers and nicked and broken DNAs. After destaining the gel in water, the ethidium bromide stained DNA reaction products were visualized by exposing the gel to UV irradiation. Negatives of photographs of the irradiated gels were scanned with a densitometer and areas under the peaks were calculated in order to obtain percent single strand DNA break formation for each sample. A median effective concentration(EC50) was obtained for each compound by interpolation between points of the resulting dose - effect curve which defines the potency of the compound for its effect for inducing topoisomerase I mediated single strand breaks in DNA.

[2] = test system: HCT116 human colon carcinoma cells; experiment: In-vitro cell-based cytotoxicity, XTT assay; settings: HCT-116, 72 hrs incubation, absorbance at 450 nm
Description: The proliferation inhibition activity against human colon cell line was measured as follows.
Cytotoxicity was assessed in HCT116 human colon carcinoma cells by XTT (2,3-bis(2-methoxy-4-nitro- 5-sulfophenyl)-5-[(phenylamino)carbonyl]-2H-tetrazolium hydroxide assay as described in the literature by Scudiero, DA, Shoemaker, RH, Paull, KD, Monks, A, Tierney, S, Nofziger, TH, Currens, MJ, Seniff, D, and Boyd, MR. Evaluation of a soluble tetrazolium/formazan assay for cell growth and drug sensitivity in culture using human and other tumor cell lines, was done according to the procedure described in Cancer Res. 48: 4827-4833, 1988. Cells were plated at 4000 cells/well in 96 well microtiter plates and 24 hrs later drugs were added and serial diluted. The cells were incubated at 37° C for 72 hrs at which time the tetrazolium dye, XTT, containing phenazine methosulfate was added. A dehydrogenase enzyme in live cells reduces the XTT to a form that absorbs light at […] which can be quantitated spectrophotometrically. The greater the absorbance the greater the number of live cells. The results are expressed as an IC50 which is the drug concentration required to inhibit cell proliferation (i.e. absorbance at 450 nm) to 50% of that of untreated control cells.

P388 leukemia cells = experiment: In-vivo anti-tumor efficacy against ip implanted P388 leukemia; parameters: species or system mice (BDF1 or CDF1); MST: unit not given here; settings: for T/C (%): ip, MST(T)/MST(C) x 100, activity defined as >= 125%; for MST: one ip injection one day after implant, median survival time of treated mice
Description: In-vivo antitumor experiments were initiated by implanting mice (BDF1 or CDF1) ip with 10(6) P388 leukemia cells. Treatments were initiated one day after implant and involved one ip injection per dose level; several dose levels were evaluated per compound. Six mice were typically used per dose level in treatment groups, and eight to ten mice were used as parallel untreated leukemic controls. Evaluation of activity was made on the basis of comparing the median survival time (MST) of treated (T) mice with the MST of control (C) mice. Activity was defined as a %T/C of > or = 125%, calculated as: MST(T)/MST(C) x 100 = %T/C Table I

`CS(=O)(=O)OC[C@H]1O[C@@H](n2c3ccc(F)cc3c3c4c(c5c6cc(F)ccc6[nH]c5c32)C(=O)NC4=O)[C@H](O)[C@@H](O)[C@@H]1O` [Example 15, 3,9-Difluoro-12,13-dihydro-13-[6-O-(methylsulfonyl)-β-D-glucopyranosyl]-5H-indolo[2,3-a]pyrrolo[3,4-c]carbazole-5,7(6H)-dione] was tested. Which EC50 [1] did it give?
Its EC50 is 30 nM.

What about the IC50 [2] of the same compound?
Its IC50 is 260 nM.

What does the source list for `NC[C@H]1O[C@@H](n2c3cc(F)ccc3c3c4c(c5c6ccc(F)cc6[nH]c5c32)C(=O)N(N)C4=O)[C@H](O)[C@@H](O)[C@@H]1O` [Example 18, 6-Amino-13-(6-amino-6-deoxy-β-D-glucopyranosyl)-2,10-difluoro-12,13-dihydro-5H-indolo[2,3-a]pyrrolo[3,4-c]carbazole-5,7(6H)-dione]?
Topo-I activity (concentration without activity) [1]: greater than 100 micro molar; EC50 [1]: > 100000 nM; IC50 [2]: > 1450 nM

How did the EC50 [1] turn out when `NC[C@H]1O[C@@H](n2c3ccc(F)cc3c3c4c(c5c6cc(F)ccc6[nH]c5c32)C(=O)NC4=O)[C@H](O)[C@@H](O)[C@@H]1O` [Example 19] was run?
Its EC50 is 40 nM.

What about the Topo-I activity [1] of the same compound?
Its Topo-I activity is “sub micro molar”.

What about the “T/C (%)” value (P388 leukemia cells; P388, 25 mg/kg/dose) of the same compound?
The value was 155%.

And the MST (P388 leukemia cells; P388, 25 mg/kg/dose)?
The MST was 17.0.

And the “T/C (%)” value (P388 leukemia cells; P388, 50 mg/kg/dose)?
The value was 168%.

And the MST (P388 leukemia cells; P388, 50 mg/kg/dose)?
The MST was 18.5.

And the “T/C (%)” value (P388 leukemia cells; P388, 100 mg/kg/dose)?
Its value is 182%.

What about the MST (P388 leukemia cells; P388, 100 mg/kg/dose) of the same compound?
The MST was 20.0.

What about the “T/C (%)” value (P388 leukemia cells; P388, 200 mg/kg/dose) of the same compound?
The value was 82%.

What about the MST (P388 leukemia cells; P388, 200 mg/kg/dose) of the same compound?
The MST was 9.0.

And the anti-tumor activity (P388 leukemia cells; result in words)?
The anti-tumor activity was “effective anti-tumor agent”.

And the IC50 [2]?
The IC50 was 110 nM.

With `O=C1NC(=O)c2c1c1c3cc(F)ccc3[nH]c1c1c2c2cc(F)ccc2n1[C@@H]1O[C@H](CN2CCOCC2)[C@@H](O)[C@H](O)[C@H]1O` [Example 29, 3,9-Difluoro-12,13-dihydro-13-[6-(4N-morpholino)-β-D-glucopyranosyl]-5H-indolo[2,3-a]pyrrolo [3,4-c] carbazole-5,7(6H)-dione] as the compound, how does the EC50 [1] read?
Its EC50 is 10 nM.

And the “T/C (%)” value (P388 leukemia cells; P388, 25 mg/kg/dose)?
The value was 127%.

What about the MST (P388 leukemia cells; P388, 25 mg/kg/dose) of the same compound?
Its MST is 14.0.

And the “T/C (%)” value (P388 leukemia cells; P388, 50 mg/kg/dose)?
The value was 109%.

And the MST (P388 leukemia cells; P388, 50 mg/kg/dose)?
The MST was 12.0.

And the “T/C (%)” value (P388 leukemia cells; P388, 100 mg/kg/dose)?
The value was 150%.

And the MST (P388 leukemia cells; P388, 100 mg/kg/dose)?
The MST was 16.5.

And the “T/C (%)” value (P388 leukemia cells; P388, 200 mg/kg/dose)?
Its value is 91%.

And the MST (P388 leukemia cells; P388, 200 mg/kg/dose)?
The MST was 10.

And the IC50 [2]?
The IC50 was 90 nM.

With `[N-]=[N+]=NC[C@H]1O[C@@H](n2c3ccc(F)cc3c3c4c(c5c6cc(F)ccc6[nH]c5c32)C(=O)N(O)C4=O)[C@H](O)[C@@H](O)[C@@H]1O` [Example 30, 3,9-Difluoro-12,13-dihydro-13-[6-azido-β-D-glucopyranosyl]-5H-indolo[2,3-a]pyrrolo [3,4-c] carbazole-5,7(6-hydroxy)dione] as the compound, how does the EC50 [1] read?
The EC50 was less than 10 nM.

Which EC50 [1] does the source give for `NC[C@H]1O[C@@H](n2c3ccc(F)cc3c3c4c(c5c6cc(F)ccc6[nH]c5c32)C(=O)N(O)C4=O)[C@H](O)[C@@H](O)[C@@H]1O` [Example 31, 3,9-Difluoro-12,13-dihydro-13-[6-amino-β-D-glucopyranosyl]-5H-indolo[2,3-a]pyrrolo [3,4-c] carbazole-5,7(6-hydroxy)dione] here?
Its EC50 is less than 10 nM.

How did the EC50 [1] turn out when `O=C1NC(=O)c2c1c1c3cc(F)ccc3[nH]c1c1c2c2cc(F)ccc2n1[C@@H]1O[C@H](Cn2ccnc2)[C@@H](O)[C@H](O)[C@H]1O` [Example 34] was run?
Its EC50 is 23000 nM.

With `CN1CCN(C[C@H]2O[C@@H](n3c4ccc(F)cc4c4c5c(c6c7cc(F)ccc7[nH]c6c43)C(=O)NC5=O)[C@H](O)[C@@H](O)[C@@H]2O)CC1` [Example 35] as the compound, how does the EC50 [1] read?
The EC50 was 750 nM.

What about the IC50 [2] of the same compound?
Its IC50 is 500 nM.

With `O=C1NC(=O)c2c1c1c3cc(F)ccc3[nH]c1c1c2c2cc(F)ccc2n1[C@@H]1O[C@H](CF)[C@@H](O)[C@H](O)[C@H]1O` [Example 47] as the compound, how does the EC50 [1] read?
The EC50 was 100 nM.

For `O=C1c2c(c3c4cc(F)ccc4n([C@@H]4O[C@H](CF)[C@@H](O)[C@H](O)[C@H]4O)c3c3[nH]c4ccc(F)cc4c23)C(=O)N1O` [Example 48], which EC50 [1] is on record?
Its EC50 is 400 nM.

For `CCN(CC)C[C@H]1O[C@@H](n2c3ccc(F)cc3c3c4c(c5c6cc(F)ccc6[nH]c5c32)C(=O)N(O)C4=O)[C@H](O)[C@@H](O)[C@@H]1O` [Example 68], which EC50 [1] is on record?
Its EC50 is 30 nM.

Which EC50 [1] does the source give for `O=C1c2c(c3c4cc(F)ccc4n([C@@H]4O[C@H](CF)[C@@H](O)[C@H](O)[C@H]4O)c3c3sc4ccc(F)cc4c23)C(=O)N1O` [Example 69] here?
Its EC50 is 30 nM.

For `CO[C@H]1[C@H](O)[C@@H](O)[C@H](n2c3c(Cl)cccc3c3c4c(c5c6cccc(Cl)c6[nH]c5c32)C(=O)NC4=O)O[C@@H]1CO` [rebeccamycin, reference compound], which Topo-I activity [1] is on record?
Its Topo-I activity is “not Topo-I active”.

From patent publication EP0971717B1, “CYTOTOXIC AMINO SUGAR AND RELATED SUGAR DERIVATIVES OF INDOLOPYRROLOCARBAZOLES” (Bristol-Myers Squibb Company, priority 1996, dated 1998)
